Laboratory results from patent US10391201B2, “Gene therapy” (Ospedale San Raffaele S.r.l., priority 2014, dated 2019).

Legend:
[1] = tested on: bone marrow (BM)-derived CD34+ cells; type: cell-based, human; details: BM-derived CD34+ HSPC; MOI 1; 20 μm FK506, 5 mM 3-MA alone or with 10 μM CsA / 10 μg/mL rapamycin
Procedure: (§1) Human CB and BM-derived haematopoietic stem/progenitor cells (HSPC) were cultured in serum-free StemSpan medium (StemCell Technologies) supplemented with 100 ng/mL recombinant human stem cell factor (rhSCF), 20 ng/mL recombinant human thrombopoietin (rhTPO), 100 ng/mL recombinant human Flt3 ligand (rhFlt3) and 20 ng/mL recombinant human IL6 (rhIL6) (all from Peprotech) 16 to 24 hours prior to transduction. HSPC were then transduced at a concentration of 1×10^6 cells per mL with vesicular stomatitis virus glycoprotein (VSV-G)-pseudotyped SINLV for 20 hours at the indicated multiplicity of infection (MOI) in the same medium. After transduction, cells were washed and maintained serum-free StemSpan supplemented with cytokines as above until the reading of GFP-positive (GFP+) cells by FACS. After FACS they were maintained in Roswell Park Memorial Institute medium (RPMI, Lonza) supplemented with 10% FBS, 25 ng/mL rhSCF, 5 ng/mL rhIL6, 25 ng/mL rhFlt3 and 5 ng/mL rhTPO for another seven days before analysis of vector copy numbers. MDM were transduced 7 days after differentiation. T lymphocytes were transduced at a concentration of 10^6 cells per mL, after 3 days of stimulation. All the cells were exposed to the vector for 16-20 hours.
(§2) They were added to the transduction medium at the indicated concentration and washed out with the vector 16-20 hours later.
(§3) GFP expression in transduced cells was measured 5-7 days post-transduction. Adherent MDM were detached by scraping in 5 mM PBS-EDTA, washed and resuspended in PBS containing 2% FBS. Cells grown in suspension were washed and resuspended in PBS containing 2% FBS. To exclude dead cells from the analysis, 10 ng/mL 7-aminoactinomycin D (7-AAD) was added.
(§4) DNA from cell cultures was extracted using a Maxwell 16 instrument (Promega) or Blood & Cell Culture DNA Micro Kit (Qiagen). To amplify the vector sequence, primers and probes complementary to the vector Rev responsive element sequence were used. Vector copy numbers and replication intermediates were normalised to genomic DNA content, which was assessed using the human TERT gene. Quantitative polymerase chain reaction (qPCR) primers and probe sequences and conditions were previously described (Santoni de Sio, F. R. et al (2006) Blood 107: 4257-65).

[2] = tested on: cord blood (CB)-derived CD34+ cells; type: cell-based, human; details: CB-derived CD34+ HSPC; MOI 1; 20 μm FK506, 5 mM 3-MA alone or with 10 μM CsA / 10 μg/mL rapamycin
Procedure: as §1, §2, §3, §4

## Cn1cnc(N)c2ncnc1-2 [3-MA, 3-methyladenine]
[1]
  impact on LV transduction efficiency (in words): little or no effect
[2]
  impact on LV transduction efficiency (in words): little or no effect
